Test results reported in ChEMBL document CHEMBL1201862, “PubChem BioAssay data set” (2004).
Calls of active or inactive are those of the source.

Columns and labels:
[1] = target: T1, Oxysterols receptor LXR-beta (Homo sapiens, UniProt P55055); assay type: functional, cell-based;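 also: Cell-based luminescence dose-response assay of agonist activity at LXR, run as a confirmatory counterscreen to a daf-12 agonist screen; HEK293 cells with Gal4-LXR fusion and GAL4-driven luciferase reporter; agonist potency from rising luciferase signal of a Gal4-LXR reporter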
T1 sequence (P55055 whole entry): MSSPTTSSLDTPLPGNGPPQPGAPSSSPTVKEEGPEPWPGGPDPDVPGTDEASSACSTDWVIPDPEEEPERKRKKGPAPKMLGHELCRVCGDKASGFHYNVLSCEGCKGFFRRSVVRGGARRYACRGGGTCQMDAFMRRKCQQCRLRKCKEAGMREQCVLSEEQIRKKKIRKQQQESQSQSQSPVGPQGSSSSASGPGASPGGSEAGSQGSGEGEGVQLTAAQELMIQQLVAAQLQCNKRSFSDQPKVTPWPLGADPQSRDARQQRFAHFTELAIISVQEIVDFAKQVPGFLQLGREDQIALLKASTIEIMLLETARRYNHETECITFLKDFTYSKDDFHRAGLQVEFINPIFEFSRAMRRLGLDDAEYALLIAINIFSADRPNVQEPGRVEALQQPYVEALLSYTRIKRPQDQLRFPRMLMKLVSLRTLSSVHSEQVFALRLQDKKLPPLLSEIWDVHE

[2] = antifungal activity, alamar blue, dry powder, counter-screen for C. neoformans cell wall antifungals, dose response (AID 743128); assay type: functional, organism-based
[3] = OVCAR-3 cell viability loss – plate reader, dry powder samples, PAX8 inhibitor project, dose response (AID 743044); assay type: functional, cell-based
[4] = OVCAR8 cell viability loss – plate reader, dry powder samples, PAX8 project, dose response (AID 743197); assay type: functional, cell-based; settings: OVCAR-8
[5] = YAP1 overexpression rescue of CTGF inhibition – DLD1 cells, RT-qPCR, cherry-pick, mechanism study for YAP1 pathway inhibitor project, dose response (AID 1053127); assay type: functional, cell-based; settings: DLD-1
[6] = IGROV1 cell killing – plate reader, dry powder samples, PAX8 inhibitor project, dose response (AID 743043); assay type: functional, cell-based; settings: IGROV-1
Paired box protein Pax-8 = Paired box protein Pax-8 (Homo sapiens, UniProt Q06710); assay: PAX8 transcriptional activity inhibition in RMG-I – RMG-I cells, luciferase, cherry-pick, dose response (AID 687027); assay type: functional, cell-based;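 also: luciferase reporter driven by Pax8 target thyroperoxidase promoter measured by SteadyGlo luminescence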
Paired box protein Pax-8, sequence (Q06710 whole entry): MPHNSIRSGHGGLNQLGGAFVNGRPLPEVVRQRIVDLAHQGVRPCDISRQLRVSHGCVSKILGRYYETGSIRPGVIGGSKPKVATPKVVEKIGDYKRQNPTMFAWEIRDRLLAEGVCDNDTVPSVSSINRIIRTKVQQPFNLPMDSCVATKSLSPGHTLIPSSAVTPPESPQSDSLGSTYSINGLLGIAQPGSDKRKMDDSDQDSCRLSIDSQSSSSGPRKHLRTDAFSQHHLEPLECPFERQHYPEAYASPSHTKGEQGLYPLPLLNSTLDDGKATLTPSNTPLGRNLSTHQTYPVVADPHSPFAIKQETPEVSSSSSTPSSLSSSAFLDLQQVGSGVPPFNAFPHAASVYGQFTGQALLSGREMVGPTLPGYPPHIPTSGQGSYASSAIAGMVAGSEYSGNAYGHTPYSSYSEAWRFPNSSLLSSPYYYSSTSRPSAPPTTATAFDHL

[7] = CTGF mRNA reduction in DLD1 cells – cell-based, DLD1 colon cancer, RT-qPCR, cherry-pick, dose response (AID 1053122); assay type: functional; settings: Cancer cell lines
[8] = viability loss in A549 lung cells – cell-based, 24 h, CellTiter-Glo luminescence, cherry-picks, cytotoxicity control, dose response (AID 1053115); assay type: functional; settings: A549, 24 h
[9] = mouse embryonic fibroblast toxicity – cell-based, plate reader, dry powder, set 2, cytotoxicity control, dose response (AID 652280); assay type: functional; settings: NIH3T3
Vasopressin V1b receptor = Vasopressin V1b receptor (Homo sapiens, UniProt P47901); assay: Late-stage results from the probe development effort to identify antagonists of arginine vasopressin receptor 1a (AVPR1a): fluorescence-based cell-based dose response AVPR1b inhibition counterscreen assay.; assay type: functional
Vasopressin V1b receptor, sequence (P47901 whole entry): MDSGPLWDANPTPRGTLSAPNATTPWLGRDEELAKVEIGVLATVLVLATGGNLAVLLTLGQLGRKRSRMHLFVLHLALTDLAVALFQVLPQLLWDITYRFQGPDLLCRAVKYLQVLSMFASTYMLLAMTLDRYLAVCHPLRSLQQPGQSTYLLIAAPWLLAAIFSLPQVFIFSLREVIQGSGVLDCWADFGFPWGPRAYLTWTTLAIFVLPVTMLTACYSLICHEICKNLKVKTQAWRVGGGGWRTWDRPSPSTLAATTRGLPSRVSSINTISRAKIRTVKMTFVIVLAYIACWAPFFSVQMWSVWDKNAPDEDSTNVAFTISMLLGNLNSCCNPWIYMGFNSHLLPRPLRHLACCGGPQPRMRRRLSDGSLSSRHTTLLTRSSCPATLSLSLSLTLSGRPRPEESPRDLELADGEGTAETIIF

[10] = Late-stage results from the probe development effort to identify antagonists of arginine vasopressin receptor 1a (AVPR1a): fluorescence-based cell-based dose response OXTR inhibition counterscreen assay.; assay type: functional
Vasopressin V2 receptor = Vasopressin V2 receptor (Homo sapiens, UniProt P30518); assay: Late-stage results from the probe development effort to identify antagonists of arginine vasopressin receptor 1a (AVPR1a): fluorescence-based cell-based dose response AVPR2 inhibition counterscreen assay.; assay type: functional
Vasopressin V2 receptor, sequence (P30518 whole entry): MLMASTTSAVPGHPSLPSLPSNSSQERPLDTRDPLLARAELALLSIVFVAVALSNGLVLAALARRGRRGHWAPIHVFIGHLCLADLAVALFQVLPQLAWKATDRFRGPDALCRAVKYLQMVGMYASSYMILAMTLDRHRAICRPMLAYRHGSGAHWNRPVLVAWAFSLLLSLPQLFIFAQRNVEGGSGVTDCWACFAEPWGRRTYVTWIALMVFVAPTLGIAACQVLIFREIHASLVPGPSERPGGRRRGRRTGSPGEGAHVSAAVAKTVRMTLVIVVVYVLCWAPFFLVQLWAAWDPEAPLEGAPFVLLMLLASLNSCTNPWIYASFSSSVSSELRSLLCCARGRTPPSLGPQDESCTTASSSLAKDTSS

[11] = Late-stage results from the probe development effort to identify antagonists of arginine vasopressin receptor 1a (AVPR1a): fluorescence-based cell-based dose response AVPR1a inhibition assay.; assay type: functional
[12] = non-specific 3'UTR reporter inhibition in Clone20-Shn3RL – cell-based, Renilla luciferase, cherry-picked, counter-screen for Shn3 inhibitor project, dose response (AID 624133); assay type: functional
[13] = reduction of Shn3 3'UTR-driven luciferase in osteoblasts – cell-based, Clone20 osteoblasts, firefly luciferase, cherry-picked, dose response (AID 624132); assay type: functional;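 also: firefly luciferase luminescence from reporter carrying the Shn3 3'UTR in osteoblasts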
[14] = loss of viability in HepG2 cells – cell-based, CellTiter-Glo, cherry-picked, cytotoxicity control for Shn3 inhibitor project, dose response (AID 624134); assay type: functional
[15] = target: COUP transcription factor 2 (Homo sapiens, UniProt P24468); assay: Luminescence-based cell-based high throughput dose response assay to identify inhibitors of COUP-TFII (NR2F2).; assay type: functional;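 also: HEK293 cells transiently cotransfected with COUP-TFII expression vector and reporter; luciferase reporter luminescence driven by COUP-TFII from the pX2-168 reporter plasmid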
COUP transcription factor 2, sequence (P24468 whole entry): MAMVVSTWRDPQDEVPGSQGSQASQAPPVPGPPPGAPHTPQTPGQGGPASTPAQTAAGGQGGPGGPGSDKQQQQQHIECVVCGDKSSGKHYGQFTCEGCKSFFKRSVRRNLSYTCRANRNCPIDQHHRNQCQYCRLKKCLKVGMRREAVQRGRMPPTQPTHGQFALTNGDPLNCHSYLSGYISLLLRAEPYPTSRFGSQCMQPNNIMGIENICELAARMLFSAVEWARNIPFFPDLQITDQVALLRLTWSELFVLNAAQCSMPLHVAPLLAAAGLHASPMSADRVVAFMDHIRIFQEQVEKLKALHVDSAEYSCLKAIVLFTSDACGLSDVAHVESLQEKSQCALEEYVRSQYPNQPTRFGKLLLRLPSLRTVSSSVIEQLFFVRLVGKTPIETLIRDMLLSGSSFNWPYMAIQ

[16] = potency of ADAM10 substrate cleavage blockers – biochemical, QFRET, dose response (AID 743254);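 also: ADAM10 enzyme with the DM2 quenched FRET peptide as substrate; EDANS fluorescence gain as the protease cuts the substrate; inhibitor potency against ADAM10 proteolytic activity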
[17] = target: Disintegrin and metalloproteinase domain-containing protein 17 (Homo sapiens, UniProt P78536); assay: inhibition of ADAM17 substrate cleavage – biochemical, quenched FRET substrate, counter-screen for ADAM10 exosite inhibitor project, dose response (AID 743253)
Disintegrin and metalloproteinase domain-containing protein 17, sequence (P78536 whole entry, the tested form may be a part): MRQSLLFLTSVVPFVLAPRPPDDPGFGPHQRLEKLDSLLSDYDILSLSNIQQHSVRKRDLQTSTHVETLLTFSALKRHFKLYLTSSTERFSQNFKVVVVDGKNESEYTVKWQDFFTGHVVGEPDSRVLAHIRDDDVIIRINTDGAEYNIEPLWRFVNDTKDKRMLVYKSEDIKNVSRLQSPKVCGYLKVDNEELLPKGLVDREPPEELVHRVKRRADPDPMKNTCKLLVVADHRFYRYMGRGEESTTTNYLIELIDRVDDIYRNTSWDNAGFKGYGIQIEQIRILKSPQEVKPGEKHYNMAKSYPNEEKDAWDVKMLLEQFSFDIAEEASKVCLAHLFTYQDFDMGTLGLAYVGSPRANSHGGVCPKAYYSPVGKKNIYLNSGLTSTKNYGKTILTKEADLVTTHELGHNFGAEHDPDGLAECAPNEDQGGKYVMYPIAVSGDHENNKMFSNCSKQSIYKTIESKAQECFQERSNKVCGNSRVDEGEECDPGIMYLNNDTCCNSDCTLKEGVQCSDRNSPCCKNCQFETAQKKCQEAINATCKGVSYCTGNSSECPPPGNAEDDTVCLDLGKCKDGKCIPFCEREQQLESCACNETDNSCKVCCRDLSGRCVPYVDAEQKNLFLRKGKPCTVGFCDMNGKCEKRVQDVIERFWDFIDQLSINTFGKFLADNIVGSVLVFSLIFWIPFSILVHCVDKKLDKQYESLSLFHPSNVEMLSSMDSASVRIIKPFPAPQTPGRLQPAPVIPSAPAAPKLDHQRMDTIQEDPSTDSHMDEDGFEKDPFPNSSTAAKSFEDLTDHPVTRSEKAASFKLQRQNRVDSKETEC

[18] = target: T2, Heat shock factor protein 1 (Mus musculus, UniProt P38532); assay: enhancement of HSF1-driven luciferase signal – cell-based, NIH3T3, luminescence, dose retest, confirmation (AID 435004); assay type: functional;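 also: stress induced by proteasome inhibitor MG132 added 30 min after compound; luciferase reporter driven by HSF1 response element in NIH3T3 cells; actives raise luminescence as potentiators of the MG132 stress response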
T2 sequence (P38532 whole entry): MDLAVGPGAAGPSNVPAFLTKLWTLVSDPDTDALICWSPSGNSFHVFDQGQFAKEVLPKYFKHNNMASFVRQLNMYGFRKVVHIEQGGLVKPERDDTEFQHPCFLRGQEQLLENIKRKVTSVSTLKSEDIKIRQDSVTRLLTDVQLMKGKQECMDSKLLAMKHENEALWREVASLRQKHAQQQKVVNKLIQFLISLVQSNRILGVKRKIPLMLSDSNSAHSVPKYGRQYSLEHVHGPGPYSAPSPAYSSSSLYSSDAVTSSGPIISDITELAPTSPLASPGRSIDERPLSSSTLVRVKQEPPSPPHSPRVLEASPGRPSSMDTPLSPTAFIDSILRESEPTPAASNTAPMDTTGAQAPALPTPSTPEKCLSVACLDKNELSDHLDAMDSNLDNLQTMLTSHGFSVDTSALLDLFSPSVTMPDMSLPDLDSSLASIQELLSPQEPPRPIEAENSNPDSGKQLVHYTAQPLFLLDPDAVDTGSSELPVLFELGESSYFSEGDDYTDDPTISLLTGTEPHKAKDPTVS

[19] = toxicity to HepG2 liver cells – cell-based, plate reader, dry powder, set 6, cytotoxicity control, dose response (AID 743311); assay type: functional
[20] = toxicity to A549 lung cells – cell-based, plate reader, dry powder, set 6, cytotoxicity control, dose response (AID 743312); assay type: functional
[21] = cytotoxicity toward Colo320 cells – cell-based, CellTiter-Glo luminescence, IC50, dose response (AID 1117334); assay type: functional; settings: COLO 320
[22] = cytotoxicity toward HT-29 cells – cell-based, CellTiter-Glo luminescence, IC50, dose response (AID 1117330); assay type: functional
[23] = HCT116 cell viability decrease, GSK3B pretreatment – CellTiter-Glo, IC50, dose response (AID 1117339); assay type: functional; settings: HCT-116
[24] = Reduced DLD-1 viability, concentration-response, CellTiter-Glo luminescence (AID 1117352); assay type: functional
[25] = CellTiter-Glo luminescence survival assay, SW480 colon tumor line, concentration-response curve, half-maximal inhibitory concentration (AID 1117338); assay type: functional
[26] = RKO cell viability reduction, dose response, CellTiter-Glo luminescence (AID 1117322); assay type: functional
[27] = cytotoxicity toward HCT116 cells – cell-based, CellTiter-Glo luminescence, IC50, dose response (AID 1117332); assay type: functional; settings: HCT-116
[28] = SNU-C1 cell viability reduction, dose response, CellTiter-Glo luminescence (AID 1117323); assay type: functional, cell-based
[29] = Dd2 parasite growth inhibition in erythrocytes – SYBR Green, dry powder samples, set 9, dose response (AID 1159568); assay type: functional, cell-based
[30] = reduced cellular PGC1a acetyl-lysine signal – cell-based, cherry-picked samples, dose response (AID 720514); assay type: functional;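 also: potency may reflect raised or lowered acetylation signal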

For `Cc1csc(N/N=C/c2ccccc2F)n1`, the EC50 [1] was > 67.6 µM (inactive) and the EC50 (cells) was > 67.6 µM (inactive).

With `CCOC(=O)c1c(-c2ccc(F)cc2)csc1NC(=O)CN1CCN(CC)CC1` the AC50 [2] was 42.5 µM (active).

With `O=C(Cc1ccncc1)N1CCCCN2[C@H](C1)[C@H](c1ccc(C#Cc3ccccc3F)cc1)[C@@H]2CO` the AC50 [3] was 3.05 µM (active), the AC50 [4] was > 70 µM (inactive) and the AC50 [5] was 0.102 µM (active). The AC50 [6] was 10.3 µM (active), the AC50 (Paired box protein Pax-8) was 7.15 µM (active) and the AC50 [7] was 0.175 µM (active).

For `CN1c2ccc(-c3ccc(C#N)cc3)cc2[C@@H]2[C@@H](CCN2C(=O)C2CCCCC2)[C@H]1CO`, the AC50 [8] was 47.5 µM (active).

In the case of `CN(C)CC#Cc1cccc(-c2nc(C(=O)Nc3ccc(-c4ccccc4)cc3)cc3c2[C@H](CCO)N([S+]([O-])C(C)(C)C)C3)c1` (some centres undefined), the AC50 [9] is reported as 9.5 µM (active).

For `O=C(C1CCN(c2cc(C(F)(F)F)ccn2)CC1)N(CC1CC1)c1ccc(Cl)cc1`, the IC50 (Vasopressin V1b receptor) was > 50 µM (inactive), the IC50 [10] was > 50 µM (inactive) and the IC50 (Vasopressin V2 receptor) was > 50 µM (inactive). The IC50 [11] was 0.0367 µM (active).

For `Cn1c(=O)c2nc(CCCCCCCCc3nc4ccccc4[nH]3)[nH]c2n(C)c1=O`, the AC50 [12] was 2.89 µM (active), the AC50 [13] was 3.98 µM (active) and the AC50 [14] was 3.88 µM (active). For the same molecule, the IC50 [15] was 7.5 µM (active).

In the case of `O=C(Nc1cccc(Cl)c1)c1cc(S(=O)(=O)NCCc2ccc(Cl)cc2)ccc1F`, the IC50 [16] is reported as > 7.72 µM (active), the IC50 [17] is reported as > 69.5 µM (inactive) and the EC50 [18] is reported as > 260 µM (inactive).

With `Sc1nc2cccc(Cl)c2n1CCOc1ccccc1` the AC50 [19] was > 52 µM (inactive) and the AC50 [20] was 20.9 µM (active).

In the case of `COC(=O)CCCCC(CCSS/C(CCO)=C(\C)N(C=O)Cc1cnc(C)nc1N)SC(C)=O` (centres undefined), the IC50 [21] is reported as > 20 µM (inactive), the IC50 [22] is reported as > 20 µM (inactive) and the IC50 [23] is reported as > 20 µM (inactive). For the same molecule, the IC50 [24] was > 20 µM (inactive), the IC50 [25] was > 20 µM (inactive) and the IC50 [26] was > 20 µM (inactive). The IC50 [27] was > 20 µM (inactive) and the IC50 [28] was > 20 µM (inactive).

For `Fc1cccc(CN2C[C@@H]3N[C@H](C2)[C@@H]3c2ccc(/C=C/c3ccccc3)cc2)c1`, the AC50 [29] was 4.6 µM (active) and the AC50 [30] was 13.4 µM (active).
